Source: patent US8183296B2, “Pesticide phenyloxy substituted phenylamidine derivatives” (Bayer Cropscience AG, priority 2005, dated 2012)

Key:
[1] = logP by HPLC on reversed-phase column (C 18), EEC Directive 79/831 Annex V.A8; assay type: physicochemical
[2] = tested on: Alternaria solani; experiment: In vivo protective test on Alternaria solani (leaf spot of tomato); conditions: topical, 168 h, 500 ppm of active ingredient, evaluated 7 days after inoculation, read-out: efficacy
Experimental: In Vivo Protective Test on Alternaria solani (Leaf Spot of Tomato)
(§1) To produce a suitable preparation of active compound, 1 part by weight of active compound is mixed with the stated amounts of solvent and emulsifier, and the concentrate is diluted with water to the desired concentration.
To test for protective activity, young plants are sprayed with the preparation of active compound at the stated rate of application. After the spray coating has dried on, the plants are inoculated with an aqueous spore suspension of Alternatia solani. The plants remain for one day in an incubation cabinet at approximately 20° C. and a relative atmospheric humidity of 100%. Then the plants are placed in an incubation cabinet at approximately 20° C. and a relative atmospheric humidity of 96%.
The test is evaluated 7 days after the inoculation. 0% means an efficacy which corresponds to that of the control while an efficacy of 100% means that no disease is observed.

[3] = tested on: Aedes aegypti larvae; experiment: In vivo protective test on Aedes aegypti (AEDSAE U)
Experimental: In Vivo Protective Test on Aedes Aegypti (AEDSAE U)
To produce a suitable preparation of the active compound, the active compound is mixed with the stated amount of solvent, and the concentrate is diluted with staining water to the desired concentration.
Aedes aegypti larvae are pipetted with a preparation of active ingredient of the desired concentration.
After the specified period of time, mortality in % is determined. 100% means that all larvae have been killed, a 0% means that none of the larvae have been killed.

[4] = tested on: Podosphaera leucotricha; experiment: In vivo protective test on Podosphaera leucotricha (apples); conditions: topical, 240 h, 100 ppm of active ingredient, evaluated 10 days after inoculation, read-out: efficacy
From the text: In Vivo Protective Test on Podosphaera leucotricha (Apples) [table] […] To test for protective activity, young plants are sprayed with the preparation of active compound at the stated rate of application. After the spray coating has dried on, the plants are inoculated with an aqueous spore suspension of the causal agent of apple mildew (Podosphaera leucotricha).

[5] = tested on: Sphaerotheca fuliginea; experiment: In vivo protective test on Sphaerotheca fuliginea (cucumbers); conditions: Podosphaera fuliginea, topical, 168 h, 100 ppm of active ingredient, evaluated 7 days after inoculation, read-out: efficacy
Experimental: In Vivo Protective Test on Sahaerotheca fuliginea (Cucumbers)
as §1
To test for protect activity, young plants are sprayed with the preparation of active compound at the stated rate of application. After the spray coating has dried on, the plants are inoculated with an aqueous spore suspension of Sphaerotheca fuliginea. The plants are then placed in a greenhouse at approximately 23° C. and a relative atmospheric humidity of approximately 70%.
(§2) The test is evaluated 7 days after the inoculation. 0% means an efficacy which corresponds to that of the control, while an efficacy of 100% means that no disease is observed.

[6] = tested on: Erysiphe graminis f.sp. hordei; experiment: In vivo preventive test on Erysiphe graminis (powdery mildew on barley); conditions: Blumeria graminis, topical, 168 h, 1000 ppm of active ingredient, evaluated 7 days after inoculation, read-out: efficacy
Experimental: In Vivo Preventive Test on Erysiphe gramini (Powdery Mildew on Barley)
To produce a suitable preparation of active compound, 1 part by weight of active compound or active compound combination is mixed with the stated amounts of solvent and emulsifier, and the concentrate is diluted with water to the desired concentration.
To test for preventive activity, young plants are sprayed with the preparation of active compound or active compound combination at the stated rate of application.
After the spray coating has dried on, the plants are dusted with spores of Erysiphe graminis f.sp. hordei
The plants are placed in a greenhouse at a temperature of approximately 20° C. and a relative atmospheric humidity of approximately 80% to promote the development of mildew pustules.
as §2

[7] = tested on: Puccinia recondita f. Sp. tritici; experiment: In vivo preventive test on Puccinia recondita f. Sp. tritici (wheat brown rust); conditions: topical, 240 h, 1000 ppm of active ingredient, evaluated 10 days after inoculation, read-out: efficacy
Experimental: In Vivo Preventive Test on Puccinia recondita f. Sp. tritici (Wheat Brown Rust)
as §1
To test for preventive activity, young plants are […]. After the spray coating has dried on, the plants are sprayed with the preparation of active compound at the stated rate of application. The plants remain for 24 hours in an incubation cabinet at 20° C. and a relative atmospheric humidity of 100%.
The plants are placed in a greenhouse at a temperature of approximately 20° C. and a relative atmospheric humidity of approximately 80% to promote the development of rust pustules.
The test is evaluated 10 days after the inoculation. 0% means an efficacy which corresponds to that of the control, while an efficacy of 100% means that no disease is observed.

[8] = logP by HPLC on reversed-phase column (C 18), EEC Directive 79/831 Annex V.A8; assay type: physicochemical; conditions: reversed-phase HPLC column (C 18), C 18, 40° C., 0.1% aqueous formic acid and acetonitrile, read-out: logPa
Experimental: Temperature: 40° C.; Mobile phases: 0.1% aqueous formic acid and acetonitrile; linear gradient from 10% acetonitrile to 90% acetonitrile.
Calibration was carried out using unbranched alkan-2-ones (comprising 3 to 16 carbon atoms) with known logP values (determination of the logP values by the retention times using linear interpolation between two successive alkanones).

[9] = tested on: mosquito larvae (Aedes aegypti); experiment: In vivo protective test on Aedes aegypti (AEDSAE MO); conditions: Aedes aegypti third larvae
Experimental: In Vivo Protective Test on Aedes aegypti (AEDSAE MO)
To produce a suitable preparation of active compound, 1 part by weight of active compound is mixed with the stated amount of solvent, and the concentrate is diluted with water to the desired concentration.
10 to 20 third mosquito larvae (Aedes aegypti) are added to the well and incubated.
After the specified period of time, mortality in % is determined. 100% means that all of the larvae have been killed; 0% means that none of the larvae have been killed.

[10] = tested on: eggs of cotton bollworm (Heliothis virescens); experiment: In vivo protective test on Heliothis virescens (HELIVI U); conditions: soybean leaf sections infested with Heliothis virescens eggs
From the text: In Vivo Protective Test on Heliothis virescens (HELIVI U)
To produce a suitable preparation of the active compound, 1 part by weight of active compound is mixed with the stated amount of solvent and emulsifier, and the concentrate is dilutes with emulsifier-containing water to the desired concentration.
Soybean (Glycine max.) leaf sections are sprayed with a preparation of the active ingredient of the desired concentration. Once dry, the leaf sections are infested with eggs of cotton bollworm (Heliotis virescens).
After the specified period of time, mortality in % is determined. 100% means that all eggs have been killed and 0% means that none of the eggs have been killed.

Structure (SMILES) | log P (pH 2.3) [1] | pest or weed control at 500 ppm [2] | activity (mortality of larvae) [3] | pest or weed control at 100 ppm [4] | pest or weed control at 100 ppm [5] | pest or weed control at 1000 ppm [6] | pest or weed control at 1000 ppm [7] | chromatographic logP [8] | activity (mortality of larvae) [9] | activity (mortality of eggs) [10]
Cc1cc(Oc2ccc(Cl)c(C(C)(C)C)c2)c(Cl)cc1N [4-(3-t-butyl-4-chlorohenoxy)-5-chloro-2-methylaniline] | 5.68 |  |  |  |  |  |  |  |  | 
Cc1cc([N+](=O)[O-])c(C)cc1Oc1ccc(Cl)c(C(C)(C)C)c1 [4-(3-t-butyl-4-chlorphenoxy)-2,5-dimethylnitrobenzene] | 6.32 |  |  |  |  |  |  |  |  | 
Cc1cc(Oc2ccc(Cl)c(C(C)(C)C)c2)c(C)cc1N [4-(3-t-butyl-4-chlorphenoxy)-2,5-xylidine] | 4.38 |  |  |  |  |  |  |  |  | 
Cc1cc(Oc2ccc(Cl)c(C(C)(C)C)c2)c(Cl)cc1[N+](=O)[O-] [4-(3-t-butyl-4-chlorphenoxy)-5-chloro-2-methylnitrobenzene] | 6.32 |  |  |  |  |  |  |  |  | 
CCN(C)C=Nc1cc(Cl)c(Oc2ccc(Cl)c(C(C)(C)C)c2)cc1C [Example 1, N-Ethyl-N-methyl-N′-[4-(3-t-butyl-4-chlorphenoxy)-5-chloro-2-methylphenyl]formamidine] | 2.80 |  |  |  |  |  |  |  |  | 
CCN(C)C=Nc1cc(C)c(Oc2ccc(Cl)c(C(C)(C)C)c2)cc1C [Example 2, N-Ethyl-N-methyl-N′-[4-(3-t-butyl-4-chlorphenoxy)-2,5-xylyl]formamidine] | 3.04 |  |  |  |  |  |  |  |  | 
CCN(C)/C=N/c1cc(C)c(Oc2ccc(Cl)c(C(C)C)c2)cc1C [Example 3] |  | ≥ 70% | good activity | ≥ 70% | ≥ 70% | ≥ 70% | ≥ 70% | 2.75 |  | 
Cc1cc(Oc2ccc(Cl)c(C(C)(C)C)c2)c(C)cc1/N=C/N(C)C(C)C [Example 9] |  | ≥ 70% |  | ≥ 70% | ≥ 70% | ≥ 70% | ≥ 70% | 3.42 |  | 
CCc1cc(Oc2cc(C)c(/N=C/N(C)CC)cc2Cl)ccc1Cl [Example 13] |  | ≥ 70% |  | ≥ 70% | ≥ 70% | ≥ 70% | ≥ 70% | 2.78 |  | 
CCCN(C)/C=N/c1cc(C)c(Oc2ccc(Cl)c(CC)c2)cc1C [Example 14] |  | ≥ 70% |  | ≥ 70% | ≥ 70% | ≥ 70% | ≥ 70% | 2.76 |  | 
CCCN(C)/C=N/c1cc(C)c(Oc2ccc(Br)c(C(C)C)c2)cc1C [Example 17] |  | ≥ 70% |  | ≥ 70% | ≥ 70% | ≥ 70% | ≥ 70% | 2.91 |  | 
Cc1cc(Oc2ccc(Br)c(C(C)C)c2)c(C)cc1/N=C/N(C)C(C)C [Example 18] |  | ≥ 70% |  | ≥ 70% | ≥ 70% | ≥ 70% | ≥ 70% | 3.34 | good activity | good activity
CCN(C)/C=N/c1cc(C)c(Oc2ccc(Br)c(C(C)C)c2)cc1C [Example 19] |  | ≥ 70% |  | ≥ 70% | ≥ 70% | ≥ 70% | ≥ 70% | 3.04 |  | 
CCN(C)/C=N/c1cc(Cl)c(Oc2ccc(Cl)c(C(C)C)c2)cc1C [Example 20] |  | ≥ 70% |  | ≥ 70% | ≥ 70% | ≥ 70% | ≥ 70% | 2.95 |  | 
CCCN(C)/C=N/c1cc(Cl)c(Oc2ccc(Cl)c(C(C)C)c2)cc1C [Example 21] |  | ≥ 70% |  | ≥ 70% | ≥ 70% | ≥ 70% | ≥ 70% | 3.03 |  | 
Cc1cc(Oc2ccc(Cl)c(C(C)C)c2)c(Cl)cc1/N=C/N(C)C(C)C [Example 22] |  | ≥ 70% |  | ≥ 70% | ≥ 70% | ≥ 70% | ≥ 70% | 3.17 |  | 
CCCN(C)/C=N/c1cc(Cl)c(Oc2ccc(Cl)c(C(C)(C)C)c2)cc1C [Example 25] |  | ≥ 70% |  | ≥ 70% | ≥ 70% | ≥ 70% | ≥ 70% | 3.27 |  | 
CCN(C)/C=N/c1cc(Cl)c(Oc2ccc(Cl)c(C(C)(C)C)c2)cc1C [Example 26] |  | ≥ 70% |  | ≥ 70% | ≥ 70% | ≥ 70% | ≥ 70% | 3.02 |  | 
Cc1cc(Oc2ccc(Cl)c(C(C)C)c2)c(C)cc1/N=C/N(C)C(C)C [Example 28] |  | ≥ 70% |  | ≥ 70% | ≥ 70% | ≥ 70% | ≥ 70% | 2.74 |  | 
CCN(C)/C=N/c1cc(Cl)c(Oc2ccc(Br)c(C(C)C)c2)cc1C [Example 30] |  | ≥ 70% |  | ≥ 70% | ≥ 70% | ≥ 70% | ≥ 70% | 2.84 |  | 
CCc1cc(Oc2cc(C)c(/N=C/N(C)C(C)C)cc2C)ccc1Cl [Example 32] |  | ≥ 70% |  | ≥ 70% | ≥ 70% | ≥ 70% | ≥ 70% | 2.75 |  | 
